Assay results: PMC2910436 (Cell, 2010)

Assays:
[1] = molecular target: BDH2 (DHRS6) (Mus musculus, UniProt Q8JZV9); assay: NADH formation at […] nm; assay type: biochemical; details: co-substrate 2,3-diDHBA
[2] = molecular target: EntA (Escherichia coli, UniProt P15047); assay: NADH formation at […] nm; assay type: biochemical; details: co-substrate 2,3-diDHBA
Chain of EntA (P15047 whole entry): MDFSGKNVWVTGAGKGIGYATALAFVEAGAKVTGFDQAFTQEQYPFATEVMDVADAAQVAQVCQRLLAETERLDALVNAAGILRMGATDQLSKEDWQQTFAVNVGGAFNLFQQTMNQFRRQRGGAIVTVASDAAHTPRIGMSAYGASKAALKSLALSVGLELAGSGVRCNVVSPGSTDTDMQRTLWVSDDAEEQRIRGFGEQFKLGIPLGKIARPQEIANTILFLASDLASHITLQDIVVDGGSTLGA

Chain of BDH2 (DHRS6) (Q8JZV9 whole entry): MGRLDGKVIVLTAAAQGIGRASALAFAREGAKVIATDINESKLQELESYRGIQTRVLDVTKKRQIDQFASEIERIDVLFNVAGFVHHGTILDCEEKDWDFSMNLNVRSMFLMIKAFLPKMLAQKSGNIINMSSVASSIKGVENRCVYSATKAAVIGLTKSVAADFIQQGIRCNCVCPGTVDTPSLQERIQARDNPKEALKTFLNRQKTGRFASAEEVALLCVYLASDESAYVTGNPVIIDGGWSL

Structure (SMILES): NC(=O)c1ccc[n+]([C@@H]2O[C@H](COP(=O)(O)OP(=O)(O)OC[C@H]3O[C@@H](n4cnc5c(N)ncnc54)[C@H](O)[C@@H]3O)[C@@H](O)[C@H]2O)c1 [NAD^+]
- NADH formation at 340 nm [1]: wild-type EntA and BDH2 proteins, but not their mutant derivatives, catalyzed the conversion of NAD
- NADH formation at 340 nm [2]: wild-type EntA and BDH2 proteins, but not their mutant derivatives, catalyzed the conversion of NAD
